Results reported in patent publication US4622401A, “Heterocyclic substituted-amino-pyrazolines” (American Cyanamid Company, priority 1982, dated 1986).

Experiments:
[1] = reported by Higgs et al., Biochemical Pharmacology 28 1959 (1979); cited from earlier work
[2] = "writhing syndrome" test for analgesic activity
From the text: A method employed for measuring the in vivo activity of the compounds of the present invention is the "writhing syndrome" test for analgesic activity as described by Seigmund, et al., Proc. Soc, Exp. Biol. and Med., 95:729 (1957) with modifications. Representative compounds of the present invention which are active when tested by the "writhing syndrome" test are: 2-(3-Amino-2-pyrazolin-1-yl)benzothiazole 2-(3-Amino-5-methyl-2-pyrazolin-1-yl)benzothiazole

Structure (SMILES)	anti-inflammatory activity [1]	analgesic activity in vivo, "writhing syndrome" test [2]
NC1=NN(c2cccc(C(F)(F)F)c2)CC1 [BW 755C, 3-amino-1-[m-(trifluoromethyl)phenyl]-2-pyrazoline]	anti-inflammatory activity	
NC1=NN(c2nc3ccccc3s2)CC1 [Example 11, 2-(3-Amino-2-pyrazolin-1-yl)benzothiazole]		active
CC1CC(N)=NN1c1nc2ccccc2s1 (stereo not drawn) [Example 13, 2-(3-Amino-5-methyl-2-pyrazolin-1-yl)benzothiazole]		active
